1 molecule from patent publication US20130261134A1, “MESYLATE SALT FORMS OF A POTENT HCV INHIBITOR” (Boehringer Ingelheim International GmbH, priority 2012, published 2013) can be followed below.

As a reminder, the solubility is how much of the substance goes into solution per volume. Higher therefore signals a readily soluble substance.

A short description of the data set: Solubility in the physiological pH range. As to conditions: aqueous buffer; physiological pH range of 2-6.8. Format: physicochemical.

Turning to `Cn1c(C2(NC(=O)c3ccc4c(C5CCCC5)c(-c5ncc(Br)cn5)n(C)c4c3)CCC2)nc2ccc(/C=C/C(=O)O)cc21` [Compound (1), (E)-3-[2-(1-{[2-(5-Bromo-pyrimidin-2-yl)-3-cyclopentyl-1-methyl-1H-indole-6-carbonyl]-amino}-cyclobutyl)-3-methyl-3H-benzimidazol-5-yl]-acrylic acid], the solubility was under 0.2 µg/mL.
